System: HOP-62 complex spheroids with HUVEC/MSC, viability
Assay: Anticancer human tumor HOP-62 cell line growth inhibition [RAS];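 note: spheroids exposed to agents for seven days before readout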;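 for viability, T/C: 100% = DMSO vehicle control viability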
Conditions: for IC50: curve of first compound; for viability, T/C: stronger effect = lower value
In short: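 Multi-cell-type spheroids: tumor cells plus HUVEC endothelial cells and mesenchymal stem cells. RAS-pathway inhibitors were combined with targeted agents, each dosed in half-log steps down from clinical Cmax, or from 10 microM when Cmax was unknown.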

[1] = second compound 0.000949 µM, first compound 0.0316 µM
[2] = second compound 0.000949 µM, first compound 0.1 µM
[3] = second compound 0.000949 µM, first compound 0.316 µM
[4] = second compound 0.000949 µM, first compound 1 µM
[5] = second compound 0.000949 µM, first compound 3.16 µM
[6] = second compound 0.000949 µM, first compound 10 µM
[7] = second compound 0.003 µM, first compound 0.0316 µM
[8] = second compound 0.003 µM, first compound 0.1 µM
[9] = second compound 0.003 µM, first compound 0.316 µM
[10] = second compound 0.003 µM, first compound 1 µM
[11] = second compound 0.003 µM, first compound 3.16 µM
[12] = second compound 0.003 µM, first compound 10 µM
[13] = second compound 0.00949 µM, first compound 0.0316 µM
[14] = second compound 0.00949 µM, first compound 0.1 µM
[15] = second compound 0.00949 µM, first compound 0.316 µM
[16] = second compound 0.00949 µM, first compound 1 µM
[17] = second compound 0.00949 µM, first compound 3.16 µM
[18] = second compound 0.00949 µM, first compound 10 µM
[19] = second compound 0.03 µM, first compound 0.0316 µM
[20] = second compound 0.03 µM, first compound 0.1 µM
[21] = second compound 0.03 µM, first compound 0.316 µM
[22] = second compound 0.03 µM, first compound 1 µM
[23] = second compound 0.03 µM, first compound 3.16 µM
[24] = second compound 0.03 µM, first compound 10 µM
[25] = second compound 0.0949 µM, first compound 0.0316 µM
[26] = second compound 0.0949 µM, first compound 0.1 µM
[27] = second compound 0.0949 µM, first compound 0.316 µM
[28] = second compound 0.0949 µM, first compound 1 µM
[29] = second compound 0.0949 µM, first compound 3.16 µM
[30] = second compound 0.0949 µM, first compound 10 µM
[31] = second compound 0.3 µM, first compound 0.0316 µM
[32] = second compound 0.3 µM, first compound 0.1 µM
[33] = second compound 0.3 µM, first compound 0.316 µM
[34] = second compound 0.3 µM, first compound 1 µM
[35] = second compound 0.3 µM, first compound 3.16 µM
[36] = second compound 0.3 µM, first compound 10 µM

## CC(Nc1ccc2c(c1)OCCn1cc(N3C(=O)OCC3C(F)F)nc1-2)C(N)=O (configuration not stated) + CCn1c(-c2cc(N3CCN(C)CC3)cnc2C(C)OC)c2c3cc(ccc31)-c1csc(n1)CC(NC(=O)C1CC1C)C(=O)N1CCCC(N1)C(=O)OCC(C)(C)C2
Second compound 0.000949 µM
  IC50: 1370 nM
Second compound 0.003 µM
  IC50: 365 nM
Second compound 0.00949 µM
  IC50: < 31.6 nM
Second compound 0.03 µM
  IC50: < 31.6 nM
Second compound 0.0949 µM
  IC50: < 31.6 nM
Second compound 0.3 µM
  IC50: < 31.6 nM
[1]
  viability, T/C: 91.4%
[2]
  viability, T/C: 69.2%
[3]
  viability, T/C: 53.9%
[4]
  viability, T/C: 61%
[5]
  viability, T/C: 49.9%
[6]
  viability, T/C: 25.9%
[7]
  viability, T/C: 75.9%
[8]
  viability, T/C: 52.7%
[9]
  viability, T/C: 47.5%
[10]
  viability, T/C: 46.2%
[11]
  viability, T/C: 36.7%
[12]
  viability, T/C: 15.7%
[13]
  viability, T/C: 48.4%
[14]
  viability, T/C: 36.8%
[15]
  viability, T/C: 36.1%
[16]
  viability, T/C: 27.4%
[17]
  viability, T/C: 19.2%
[18]
  viability, T/C: 12.6%
[19]
  viability, T/C: 33.1%
[20]
  viability, T/C: 23.2%
[21]
  viability, T/C: 22.5%
[22]
  viability, T/C: 21.5%
[23]
  viability, T/C: 13.8%
[24]
  viability, T/C: 14.7%
[25]
  viability, T/C: 27.1%
[26]
  viability, T/C: 24.8%
[27]
  viability, T/C: 20.5%
[28]
  viability, T/C: 21.5%
[29]
  viability, T/C: 12.8%
[30]
  viability, T/C: 14%
[31]
  viability, T/C: 32.5%
[32]
  viability, T/C: 20.1%
[33]
  viability, T/C: 21.3%
[34]
  viability, T/C: 17.3%
[35]
  viability, T/C: 13.4%
[36]
  viability, T/C: 15.7%

## C#Cc1c(F)ccc2cc(O)cc(-c3ncc4c(N5CC6CCC(C5)N6)nc(OCC56CCCN5CC(F)C6)nc4c3F)c12 (configuration not stated)
Compound 0.0316 µM
  viability, T/C: 107% [middle of 8 runs]
Compound 0.1 µM
  viability, T/C: 113% [middle of 8 runs]
Compound 0.316 µM
  viability, T/C: 109% [middle of 8 runs]
Compound 1 µM
  viability, T/C: 100% [middle of 8 runs]
Compound 3.16 µM
  viability, T/C: 81.1% [middle of 8 runs]
Compound 10 µM
  viability, T/C: 48% [middle of 8 runs]

## CCc1c2c(nc3ccc(O)cc13)-c1cc3c(c(=O)n1C2)COC(=O)[C@]3(O)CC + CCn1c(-c2cccnc2C(C)OC)c2c3cc(ccc31)N1CCOC(CC(NC(=O)C(C(C)C)N(C)C(=O)C3(F)CCN(C(=O)C#CC(C)(C)N(C)C)CC3)C(=O)N3CCCC(N3)C(=O)OCC(C)(C)C2)C1
Second compound 0.000949 µM
  IC50: < 0.949 nM
Second compound 0.003 µM
  IC50: < 0.949 nM
Second compound 0.00949 µM
  IC50: < 0.949 nM
Second compound 0.03 µM
  IC50: < 0.949 nM
Second compound 0.0949 µM
  IC50: < 0.949 nM
Second compound 0.3 µM
  IC50: < 0.949 nM
Second compound 0.000949 µM, first compound 0.000949 µM
  viability, T/C: 45%
Second compound 0.000949 µM, first compound 0.003 µM
  viability, T/C: 15.7%
Second compound 0.000949 µM, first compound 0.00949 µM
  viability, T/C: 6.01%
Second compound 0.000949 µM, first compound 0.03 µM
  viability, T/C: 6.3%
Second compound 0.000949 µM, first compound 0.0949 µM
  viability, T/C: 4.47%
Second compound 0.000949 µM, first compound 0.3 µM
  viability, T/C: 15.6%
Second compound 0.003 µM, first compound 0.000949 µM
  viability, T/C: 45.6%
Second compound 0.003 µM, first compound 0.003 µM
  viability, T/C: 14.3%
Second compound 0.003 µM, first compound 0.00949 µM
  viability, T/C: 7.48%
Second compound 0.003 µM, first compound 0.03 µM
  viability, T/C: 7.59%
Second compound 0.003 µM, first compound 0.0949 µM
  viability, T/C: 5.27%
Second compound 0.003 µM, first compound 0.3 µM
  viability, T/C: 2.57%
Second compound 0.00949 µM, first compound 0.000949 µM
  viability, T/C: 41.5%
Second compound 0.00949 µM, first compound 0.003 µM
  viability, T/C: 13.7%
Second compound 0.00949 µM, first compound 0.00949 µM
  viability, T/C: 8.71%
Second compound 0.00949 µM, first compound 0.03 µM
  viability, T/C: 5.6%
Second compound 0.00949 µM, first compound 0.0949 µM
  viability, T/C: 3.2%
Second compound 0.00949 µM, first compound 0.3 µM
  viability, T/C: 2.48%
Second compound 0.03 µM, first compound 0.000949 µM
  viability, T/C: 41%
Second compound 0.03 µM, first compound 0.003 µM
  viability, T/C: 14.1%
Second compound 0.03 µM, first compound 0.00949 µM
  viability, T/C: 7.78%
Second compound 0.03 µM, first compound 0.03 µM
  viability, T/C: 6.23%
Second compound 0.03 µM, first compound 0.0949 µM
  viability, T/C: 2.8%
Second compound 0.03 µM, first compound 0.3 µM
  viability, T/C: 3.13%
Second compound 0.0949 µM, first compound 0.000949 µM
  viability, T/C: 36.4%
Second compound 0.0949 µM, first compound 0.003 µM
  viability, T/C: 14.8%
Second compound 0.0949 µM, first compound 0.00949 µM
  viability, T/C: 9.82%
Second compound 0.0949 µM, first compound 0.03 µM
  viability, T/C: 6.01%
Second compound 0.0949 µM, first compound 0.0949 µM
  viability, T/C: 2.96%
Second compound 0.0949 µM, first compound 0.3 µM
  viability, T/C: 2.45%
Second compound 0.3 µM, first compound 0.000949 µM
  viability, T/C: 28.9%
Second compound 0.3 µM, first compound 0.003 µM
  viability, T/C: 13.9%
Second compound 0.3 µM, first compound 0.00949 µM
  viability, T/C: 11%
Second compound 0.3 µM, first compound 0.03 µM
  viability, T/C: 4.25%
Second compound 0.3 µM, first compound 0.0949 µM
  viability, T/C: 3.87%
Second compound 0.3 µM, first compound 0.3 µM
  viability, T/C: 2.14%

## CC(=O)OC12COC1CC(O)C1(C)C(=O)C(O)C3=C(C)C(OC(=O)C(O)C(NC(=O)OC(C)(C)C)c4ccccc4)CC(O)(C(OC(=O)c4ccccc4)C21)C3(C)C (configuration not stated) + CCn1c(-c2cc(N3CCN(C)CC3)cnc2C(C)OC)c2c3cc(ccc31)-c1csc(n1)CC(NC(=O)C1CC1C)C(=O)N1CCCC(N1)C(=O)OCC(C)(C)C2
Second compound 0.000949 µM
  IC50: < 31.6 nM
Second compound 0.003 µM
  IC50: < 31.6 nM
Second compound 0.00949 µM
  IC50: < 31.6 nM
Second compound 0.03 µM
  IC50: < 31.6 nM
Second compound 0.0949 µM
  IC50: < 31.6 nM
Second compound 0.3 µM
  IC50: < 31.6 nM
[1]
  viability, T/C: 41.1%
[2]
  viability, T/C: 34.9%
[3]
  viability, T/C: 28.9%
[4]
  viability, T/C: 43.6%
[5]
  viability, T/C: 42.7%
[6]
  viability, T/C: 42.6%
[7]
  viability, T/C: 44.1%
[8]
  viability, T/C: 38.5%
[9]
  viability, T/C: 33.4%
[10]
  viability, T/C: 30.6%
[11]
  viability, T/C: 36.6%
[12]
  viability, T/C: 35%
[13]
  viability, T/C: 42.4%
[14]
  viability, T/C: 28.5%
[15]
  viability, T/C: 31.5%
[16]
  viability, T/C: 37%
[17]
  viability, T/C: 35.9%
[18]
  viability, T/C: 33.4%
[19]
  viability, T/C: 44.1%
[20]
  viability, T/C: 35.1%
[21]
  viability, T/C: 31.1%
[22]
  viability, T/C: 30.8%
[23]
  viability, T/C: 30.4%
[24]
  viability, T/C: 40.1%
[25]
  viability, T/C: 32.3%
[26]
  viability, T/C: 33.6%
[27]
  viability, T/C: 31.5%
[28]
  viability, T/C: 32.9%
[29]
  viability, T/C: 33.6%
[30]
  viability, T/C: 32.6%
[31]
  viability, T/C: 37%
[32]
  viability, T/C: 30.9%
[33]
  viability, T/C: 39%
[34]
  viability, T/C: 31.7%
[35]
  viability, T/C: 27.9%
[36]
  viability, T/C: 35.6%
